Assay results reported in ChEMBL document CHEMBL5096191 (J Med Chem, 2021).

Columns and labels:
Format in all cases: functional, cell-based
[1] = system: Cannabinoid receptor 2 (Homo sapiens), P34972 [A282M]; test: Partial agonist activity at CBR2 A2827.36M mutant (unknown origin) expressed in HEK293T assessed as increase in picometer shifts of reflected light wavelengths in presence of cannabidiol by DMR assay relative to control; conditions: filed as partial agonist
[2] = system: Cannabinoid receptor 2 (Homo sapiens), P34972 [A282M]; test: Partial agonist activity at CBR2 A2827.36M mutant (unknown origin) expressed in HEK293T assessed as increase in ERK1/2 phosphorylation incubated for 7 mins in presence of cannabidiol by AlphaScreenSureFire method relative to control; conditions: filed as partial agonist
Cannabinoid receptor 2 [3] = target: T1, Cannabinoid receptor 2 (Homo sapiens, UniProt P34972); test: Partial agonist activity at wild type CB2 receptor (unknown origin) expressed in HEK293T assessed as increase in picometer shifts of reflected light wavelengths by DMR assay relative to control; conditions: filed as partial agonist
Cannabinoid receptor 2 [4] = target: T1, Cannabinoid receptor 2; test: Partial agonist activity at wild type CB2 receptor (unknown origin) expressed in HEK293T assessed as increase in picometer shifts of reflected light wavelengths in presence of cannabidiol by DMR assay relative to control; conditions: filed as partial agonist
[5] = system: Cannabinoid receptor 2 (Homo sapiens), P34972 [S285L]; test: Partial agonist activity at CBR2 S2857.39L mutant (unknown origin) stably expressed in HEK293T assessed as decrease in forskolin induced cAMP level preincubated for 15 mins followed by forskolin addition incubated for 15 mins by HTRF assay relative to control; conditions: filed as partial agonist, time 30.0 min
[6] = system: Cannabinoid receptor 2 (Homo sapiens), P34972 [V113M]; test: Partial agonist activity at CBR2 V1133.32M mutant (unknown origin) stably expressed in HEK293T assessed as decrease in forskolin induced cAMP level preincubated for 15 mins followed by forskolin addition incubated for 15 mins by HTRF assay relative to control; conditions: filed as partial agonist, time 30.0 min
[7] = system: Cannabinoid receptor 2 (Homo sapiens), P34972 [A282M]; test: Partial agonist activity at CBR2 A2827.36M mutant (unknown origin) stably expressed in HEK293T assessed as decrease in forskolin induced cAMP level preincubated for 15 mins followed by forskolin addition incubated for 15 mins by HTRF assay relative to control; conditions: filed as partial agonist, time 30.0 min
Cannabinoid receptor 2 [8] = target: T1, Cannabinoid receptor 2; test: Partial agonist activity at wild type CB2 receptor (unknown origin) expressed in HEK293T assessed as increase in ERK1/2 phosphorylation incubated for 7 mins in presence of cannabidiol by AlphaScreenSureFire method
[9] = system: Cannabinoid receptor 2 (Homo sapiens), P34972 [V36M]; test: Partial agonist activity at CBR2 V361.35M mutant (unknown origin) expressed in HEK293T assessed as increase in picometer shifts of reflected light wavelengths in presence of cannabidiol by DMR assay relative to control; conditions: filed as partial agonist
Cannabinoid receptor 2 [10] = target: T2, Cannabinoid receptor 2 (Homo sapiens, UniProt P34972, V113M); test: Partial agonist activity at CBR2 V1133.32M mutant (unknown origin) expressed in HEK293T assessed as increase in ERK1/2 phosphorylation incubated for 7 mins in presence of cannabidiol by AlphaScreenSureFire method
[11] = system: Cannabinoid receptor 2 (Homo sapiens), P34972 [V113M]; test: Partial agonist activity at CBR2 V1133.32M mutant (unknown origin) expressed in HEK293T assessed as increase in ERK1/2 phosphorylation incubated for 7 mins in presence of cannabidiol by AlphaScreenSureFire method relative to control; conditions: filed as partial agonist
Cannabinoid receptor 2 [12] = target: T3, Cannabinoid receptor 2 (Homo sapiens, UniProt P34972, V36M); test: Partial agonist activity at CBR2 V361.35M mutant (unknown origin) stably expressed in HEK293T assessed as decrease in forskolin induced cAMP level preincubated for 15 mins followed by forskolin addition incubated for 15 mins in presence of cannabidiol by HTRF assay
[13] = system: Cannabinoid receptor 2 (Homo sapiens), P34972 [V36M]; test: Partial agonist activity at CBR2 V361.35M mutant (unknown origin) stably expressed in HEK293T assessed as decrease in forskolin induced cAMP level preincubated for 15 mins followed by forskolin addition incubated for 15 mins by HTRF assay relative to control; conditions: filed as partial agonist, time 30.0 min
Cannabinoid receptor 2 [14] = target: T1, Cannabinoid receptor 2; test: Partial agonist activity at wild type CB2 receptor (unknown origin) expressed in HEK293T assessed as increase in ERK1/2 phosphorylation incubated for 7 mins by AlphaScreenSureFire method
Cannabinoid receptor 2 [15] = target: T4, Cannabinoid receptor 2 (Homo sapiens, UniProt P34972, A282M); test: Partial agonist activity at CBR2 A2827.36M mutant (unknown origin) expressed in HEK293T assessed as increase in ERK1/2 phosphorylation incubated for 7 mins in presence of cannabidiol by AlphaScreenSureFire method
Cannabinoid receptor 2 [16] = target: T2, Cannabinoid receptor 2; test: Partial agonist activity at CBR2 V1133.32M mutant (unknown origin) expressed in HEK293T assessed as increase in picometer shifts of reflected light wavelengths in presence of cannabidiol by DMR assay
[17] = system: Cannabinoid receptor 2 (Homo sapiens), P34972 [A282M]; test: Partial agonist activity at CBR2 A2827.36M mutant (unknown origin) expressed in HEK293T assessed as increase in ERK1/2 phosphorylation incubated for 7 mins by AlphaScreenSureFire method relative to control; conditions: filed as partial agonist
Cannabinoid receptor 2 [18] = target: T4, Cannabinoid receptor 2; test: Partial agonist activity at CBR2 A2827.36M mutant (unknown origin) stably expressed in HEK293T assessed as decrease in forskolin induced cAMP level preincubated for 15 mins followed by forskolin addition incubated for 15 mins in presence of cannabidiol by HTRF assay
Cannabinoid receptor 2 [19] = target: T5, Cannabinoid receptor 2 (Homo sapiens, UniProt P34972, S285L); test: Partial agonist activity at CBR2 S2857.39L mutant (unknown origin) expressed in HEK293T assessed as increase in ERK1/2 phosphorylation incubated for 7 mins in presence of cannabidiol by AlphaScreenSureFire method
Cannabinoid receptor 2 [20] = target: T3, Cannabinoid receptor 2; test: Partial agonist activity at CBR2 V361.35M mutant (unknown origin) expressed in HEK293T assessed as increase in ERK1/2 phosphorylation incubated for 7 mins by AlphaScreenSureFire method
Cannabinoid receptor 2 [21] = target: T5, Cannabinoid receptor 2; test: Partial agonist activity at CBR2 S2857.39L mutant (unknown origin) stably expressed in HEK293T assessed as decrease in forskolin induced cAMP level preincubated for 15 mins followed by forskolin addition incubated for 15 mins by HTRF assay
Cannabinoid receptor 2 [22] = target: T1, Cannabinoid receptor 2; test: Positive allosteric modulation of JWH-133-induced agonist activity at wild type CB2 receptor (unknown origin) stably expressed in HEK293T cells assessed as inhibition of forskolin-stimulated cAMP levels preincubated for 15 mins followed by forskolin addition incubated for 15 mins by HTRF assay relative to control; conditions: filed as positive allosteric modulator, time 30.0 min
Cannabinoid receptor 2 [23] = target: T2, Cannabinoid receptor 2; test: Partial agonist activity at CBR2 V1133.32M mutant (unknown origin) expressed in HEK293T assessed as increase in picometer shifts of reflected light wavelengths by DMR assay
Cannabinoid receptor 2 [24] = target: T4, Cannabinoid receptor 2; test: Partial agonist activity at CBR2 A2827.36M mutant (unknown origin) expressed in HEK293T assessed as increase in ERK1/2 phosphorylation incubated for 7 mins by AlphaScreenSureFire method
Cannabinoid receptor 2 [25] = target: T1, Cannabinoid receptor 2; test: Partial agonist activity at wild type CB2 receptor (unknown origin) stably expressed in HEK293T assessed as decrease in forskolin induced cAMP level preincubated for 15 mins followed by forskolin addition incubated for 15 mins by HTRF assay
Cannabinoid receptor 2 [26] = target: T2, Cannabinoid receptor 2; test: Partial agonist activity at CBR2 V1133.32M mutant (unknown origin) stably expressed in HEK293T assessed as decrease in forskolin induced cAMP level preincubated for 15 mins followed by forskolin addition incubated for 15 mins in presence of cannabidiol by HTRF assay

T2 sequence (P34972 whole entry V113M): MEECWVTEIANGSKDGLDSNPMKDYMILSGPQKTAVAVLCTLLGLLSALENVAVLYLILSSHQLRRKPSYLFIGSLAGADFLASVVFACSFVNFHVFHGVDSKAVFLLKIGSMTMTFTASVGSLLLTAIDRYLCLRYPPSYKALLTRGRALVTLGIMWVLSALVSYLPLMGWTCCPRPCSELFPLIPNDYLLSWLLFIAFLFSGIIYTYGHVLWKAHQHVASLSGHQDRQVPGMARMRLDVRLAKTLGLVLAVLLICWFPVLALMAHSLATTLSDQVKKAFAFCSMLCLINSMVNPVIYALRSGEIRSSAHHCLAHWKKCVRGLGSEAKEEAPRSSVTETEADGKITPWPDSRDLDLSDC
Cannabinoid receptor 2 (Homo sapiens), P34972 [A282M], sequence (P34972 whole entry A282M): as the sequence (P34972 whole entry V113M) above, with M113V, A282M counted along it
T4 sequence (P34972 whole entry A282M): as the sequence (P34972 whole entry V113M) above, with M113V, A282M counted along it
T1 sequence (P34972 whole entry): as the sequence (P34972 whole entry V113M) above, with M113V counted along it
T5 sequence (P34972 whole entry S285L): as the sequence (P34972 whole entry V113M) above, with M113V, S285L counted along it
Cannabinoid receptor 2 (Homo sapiens), P34972 [V113M], sequence (P34972 whole entry V113M): as the sequence (P34972 whole entry V113M) above
T3 sequence (P34972 whole entry V36M): as the sequence (P34972 whole entry V113M) above, with V36M, M113V counted along it
Cannabinoid receptor 2 (Homo sapiens), P34972 [V36M], sequence (P34972 whole entry V36M): as the sequence (P34972 whole entry V113M) above, with V36M, M113V counted along it
Cannabinoid receptor 2 (Homo sapiens), P34972 [S285L], sequence (P34972 whole entry S285L): as the sequence (P34972 whole entry V113M) above, with M113V, S285L counted along it

## CCCC(C)(C)c1cc(O)c2c(c1)OC(C)(C)[C@@H]1CC=C(C)C[C@@H]21
[1]
  Emax: 189%
[2]
  Emax: 352%
Cannabinoid receptor 2 [3]
  Emax: 183%
Cannabinoid receptor 2 [4]
  Emax: 117%
[5]
  Emax: 49.3%
[6]
  Emax: 72.5%
[7]
  Emax: 45.4%
Cannabinoid receptor 2 [8]
  EC50: 7.94 nM
[9]
  Emax: 200%
Cannabinoid receptor 2 [10]
  EC50: 39.8 nM
[11]
  Emax: 216%
Cannabinoid receptor 2 [12]
  EC50: 15.8 nM
[13]
  Emax: 56.7%
Cannabinoid receptor 2 [14]
  EC50: 7.94 nM
Cannabinoid receptor 2 [15]
  EC50: 12.6 nM
Cannabinoid receptor 2 [16]
  EC50: 398 nM
[17]
  Emax: 376%
Cannabinoid receptor 2 [18]
  EC50: 7.94 nM
Cannabinoid receptor 2 [19]
  EC50: 31.6 nM
Cannabinoid receptor 2 [20]
  EC50: 31.6 nM
Cannabinoid receptor 2 [21]
  EC50: 39.8 nM
Cannabinoid receptor 2 [22]
  Emax: 56%
Cannabinoid receptor 2 [23]
  EC50: 501 nM
Cannabinoid receptor 2 [24]
  EC50: 20 nM
Cannabinoid receptor 2 [25]
  EC50: 31.6 nM
Cannabinoid receptor 2 [26]
  EC50: 25.1 nM
